According to ChEMBL document CHEMBL5357083 (ACS Med Chem Lett, 2024):

Columns and labels:
in vitro [1] = details: mouse, liver microsomes
in vitro [2] = details: dog, MDCK-MDR1

**Q.** Which CLhep predicted at […], 1 µM (in vitro [1]) does the source give for `Brc1ccc2[nH]nc(C3=CCCNC3)c2c1` here?
**A.** 57 mL/min/kg

**Q.** What about the Papp A→B at 5 µM (in vitro [2]) of the same molecule?
**A.** 7.9 ×10⁻⁶ cm/s
